ChEMBL document CHEMBL1148892, “Evaluation of in vitro aldose redutase inhibitory activity of 5-arylidene-2,4-thiazolidinediones” (Bioorg Med Chem Lett, 2007)

Target: Aldo-keto reductase family 1 member B1 (Bos taurus, UniProt P16116)
Test: Inhibition of bovine aldose reductase

IC50 [nM] | Compound
11800 | COc1cc(/C=C2\SC(=O)NC2=O)ccc1O
560 | COc1ccc(/C=C2\SC(=O)N(CC(=O)O)C2=O)cc1O
260 | COc1cc(/C=C2\SC(=O)N(CC(=O)O)C2=O)ccc1OCC(=O)O
600 | O=C(O)COc1ccc(/C=C2\SC(=O)N(CC(=O)O)C2=O)cc1
700 | COc1cc(/C=C2\SC(=O)N(CC(=O)O)C2=O)ccc1O
230 | O=C(O)COc1cccc(/C=C2\SC(=O)N(CC(=O)O)C2=O)c1

Target: Aldo-keto reductase family 1 member B1 (Bos taurus) (UniProt P16116)
Test: Inhibition of bovine aldose reductase at 12.5 uM

inhibition [%] | Compound
33 | COc1ccc(/C=C2\SC(=O)NC2=O)cc1O
